Assay results reported in paper PMC10118193, “Biochemical characterization of a GDP-mannose transporter from Chaetomium thermophilum” (PLOS ONE, 2023).
pIC50, pKd: −log10 of the molar value.

Columns and labels:
[1] = biological target: T1, CtVrg4Δ31 (Thermochaetoides thermophila, UniProt G0S534); assay: thermal shift titration (Tycho NT.[…]); assay type: binding
T1 construct: gene CTHT_0023930; C-terminal truncation lacking the last 31 residues (Golgi retrieval signal), residues 1-354, N-terminal 12-His tag, expressed in S. cerevisiae FGY217, purified in DDM
T1 sequence (G0S534 entry or part of it, stated change not applied): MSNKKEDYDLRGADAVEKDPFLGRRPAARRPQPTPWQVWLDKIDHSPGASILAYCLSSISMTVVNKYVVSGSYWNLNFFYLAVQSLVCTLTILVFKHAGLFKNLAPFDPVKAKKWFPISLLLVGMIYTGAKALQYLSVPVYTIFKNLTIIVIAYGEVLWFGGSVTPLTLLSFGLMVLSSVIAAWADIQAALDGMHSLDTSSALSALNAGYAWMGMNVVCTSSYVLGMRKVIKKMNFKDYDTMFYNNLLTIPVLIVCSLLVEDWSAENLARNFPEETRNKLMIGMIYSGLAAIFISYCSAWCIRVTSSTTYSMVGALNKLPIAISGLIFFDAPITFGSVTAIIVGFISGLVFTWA

[2] = biological target: T2, CtVrg4 (Vrg4 from Chaetomium thermophilum) (Thermochaetoides thermophila, UniProt G0S534, Y310F); assay: thermal shift titration (Tycho NT.[…]); assay type: binding
T2 construct: gene CTHT_0023930; full length, 385 residues, N-terminal 12-His tag, about 37 kDa, expressed in S. cerevisiae FGY217, purified in DDM
T2 sequence (G0S534 entry or part of it Y310F): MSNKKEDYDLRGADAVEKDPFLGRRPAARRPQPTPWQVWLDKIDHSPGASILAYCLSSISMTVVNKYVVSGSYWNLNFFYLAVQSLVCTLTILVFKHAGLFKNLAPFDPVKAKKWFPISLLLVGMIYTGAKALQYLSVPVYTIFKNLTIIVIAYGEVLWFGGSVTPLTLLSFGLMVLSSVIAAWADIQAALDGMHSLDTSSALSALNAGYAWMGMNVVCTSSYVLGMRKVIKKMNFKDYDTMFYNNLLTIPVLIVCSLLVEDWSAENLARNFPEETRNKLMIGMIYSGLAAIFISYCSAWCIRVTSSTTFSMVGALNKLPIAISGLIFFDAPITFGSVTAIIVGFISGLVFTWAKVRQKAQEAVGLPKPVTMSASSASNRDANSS

[3] = biological target: T3, CtVrg4 (Vrg4 from Chaetomium thermophilum) (Thermochaetoides thermophila, UniProt G0S534); assay: thermal shift titration (Tycho NT.[…]); assay type: binding
T3 construct: gene CTHT_0023930; full length, 385 residues, N-terminal 12-His tag, about 37 kDa, expressed in S. cerevisiae FGY217, purified in DDM
T3 sequence (G0S534 entry or part of it): as the sequence (G0S534 entry or part of it Y310F) above, with F310Y counted along it

[4] = biological target: T1, CtVrg4Δ31; assay: competition of [3H]GMP uptake into proteoliposomes; assay type: biochemical
[5] = biological target: T4, Chymotrypsin-cleaved CtVrg4 (cCtVrg4) (Thermochaetoides thermophila, UniProt G0S534); assay: exchange of internal GDP-mannose with external [3H]GMP in proteoliposomes; assay type: biochemical; conditions: yeast polar lipid proteoliposomes; internal GDP-mannose 1-1000 μM; 0.384 μM external [3H]GMP; room temperature, 10 min
T4 construct: gene CTHT_0023930; full-length His-tagged protein cut by chymotrypsin (50:1, 2 h, 18 °C); crystals of cleaved protein ~25 kDa
T4 sequence (G0S534 entry or part of it): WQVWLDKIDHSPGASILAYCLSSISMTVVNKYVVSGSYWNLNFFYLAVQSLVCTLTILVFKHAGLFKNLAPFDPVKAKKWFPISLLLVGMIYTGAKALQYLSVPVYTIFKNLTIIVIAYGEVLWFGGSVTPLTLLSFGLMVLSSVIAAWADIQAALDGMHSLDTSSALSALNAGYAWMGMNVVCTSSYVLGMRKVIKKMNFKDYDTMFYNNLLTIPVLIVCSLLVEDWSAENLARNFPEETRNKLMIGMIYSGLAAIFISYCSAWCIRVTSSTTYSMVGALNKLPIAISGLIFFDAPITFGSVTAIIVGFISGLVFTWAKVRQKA

[6] = biological target: T2, CtVrg4 (Vrg4 from Chaetomium thermophilum); assay: competition of [3H]GMP uptake into proteoliposomes; assay type: biochemical
[7] = biological target: T3, CtVrg4 (Vrg4 from Chaetomium thermophilum); assay: competition of [3H]GMP uptake into proteoliposomes; assay type: biochemical

Nc1nc2c(ncn2[C@@H]2O[C@H](COP(=O)(O)O)[C@@H](O)[C@H]2O)c(=O)[nH]1 [GMP]
pKd [1]: 4.20
pKd [2]: 3.86
pKd [3]: 3.84

Nc1nc2c(ncn2[C@@H]2O[C@H](COP(=O)(O)OP(=O)(O)O[C@H]3O[C@H](CO)[C@@H](O)[C@H](O)[C@@H]3O)[C@@H](O)[C@H]2O)c(=O)[nH]1 [GDP-mannose]
pKd [1]: 4.23
pIC50 [4]: 4.32
pKd [2]: 3.89
Km [5]: 32.1 µM
pKd [3]: 4.13
pIC50 [6]: 4.33
pIC50 [7]: 4.59
